# Target: T1, human TLR7 (Homo sapiens, UniProt Q9NYK1)
# T1 construct: host or cells: HEK-Blue hTLR7 (HEK293-derived reporter cells)
# T1 sequence (Q9NYK1 27-1049): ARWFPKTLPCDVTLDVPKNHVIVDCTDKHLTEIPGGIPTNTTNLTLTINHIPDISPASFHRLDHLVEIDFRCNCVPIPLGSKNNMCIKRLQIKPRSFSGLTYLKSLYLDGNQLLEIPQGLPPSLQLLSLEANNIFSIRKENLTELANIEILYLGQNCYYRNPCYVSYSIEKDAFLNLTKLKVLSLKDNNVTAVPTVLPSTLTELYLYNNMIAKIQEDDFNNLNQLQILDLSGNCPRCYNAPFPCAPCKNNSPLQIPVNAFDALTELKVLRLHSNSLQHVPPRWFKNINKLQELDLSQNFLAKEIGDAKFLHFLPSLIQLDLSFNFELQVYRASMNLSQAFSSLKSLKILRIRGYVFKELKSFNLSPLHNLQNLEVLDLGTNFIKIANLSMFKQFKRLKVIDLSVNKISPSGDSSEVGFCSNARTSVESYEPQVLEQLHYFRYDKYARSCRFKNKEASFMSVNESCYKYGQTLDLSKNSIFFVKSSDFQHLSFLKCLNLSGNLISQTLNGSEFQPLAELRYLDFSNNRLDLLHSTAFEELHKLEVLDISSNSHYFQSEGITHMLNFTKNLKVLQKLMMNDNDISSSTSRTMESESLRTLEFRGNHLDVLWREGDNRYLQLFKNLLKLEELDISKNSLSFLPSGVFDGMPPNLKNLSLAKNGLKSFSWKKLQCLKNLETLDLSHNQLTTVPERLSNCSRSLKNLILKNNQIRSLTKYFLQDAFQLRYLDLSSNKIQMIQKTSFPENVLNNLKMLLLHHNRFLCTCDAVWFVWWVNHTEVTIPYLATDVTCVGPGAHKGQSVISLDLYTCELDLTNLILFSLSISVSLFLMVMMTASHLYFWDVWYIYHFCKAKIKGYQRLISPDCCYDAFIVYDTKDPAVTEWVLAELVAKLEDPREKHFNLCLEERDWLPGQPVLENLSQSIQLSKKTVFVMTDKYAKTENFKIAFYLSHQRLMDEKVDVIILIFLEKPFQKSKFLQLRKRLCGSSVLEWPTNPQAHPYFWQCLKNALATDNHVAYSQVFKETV
# Assay: Agonistic activity on human TLR7 in HEK-Blue hTLR7 cell line (QUANTI-Blue reporter)
# Assay type: cell-based
# Details: HEK-Blue hTLR7 cells, 16-22 h incubation, absorption at 630 nm; read-out: EC50 value of the agonistic effect on human TLR7
# Protocol: The TLR7 agonistic activity of the compounds of the invention in HEK-Blue™ hTLR7 cell line with stable expression of human TLR7 were assayed using the following method: • 1. Weighed the test compounds and prepared stock solutions with DMSO (Sigma) at a concentration of 10 mM. […] The highest concentration was 1 mM. • 2. The test compounds and DMSO control were diluted 10-fold in DPBS buffer (Gibco) and then added to a 96-well cell culture plate (Corning) at a volume of 20 μL/well. • 3. HEK-Blue™ hTLR7 cells (Invivogen) were digested with cell separation solution (Gibco), and counted (TC-20 cell counter, Bio-rad). Cells were diluted to 4.4E5/ml using DMEM cell medium (Gibco). Added the cells to a 96-well cell culture plate at a volume of 180 μL/well. The cells were incubated for 16-22 h at 37° C. in a 5% CO2 incubator. • 4. Prepared QUANTI-Blue detection reagent (Invivogen), and added into a new 96-well plate at a volume of 180 μL/well. Twenty μL of cell culture supernatant was transferred from the cell culture plate and added to the 96-well plate and incubated at 37° C. for 1-3 hours. • 5. Neo2 multifunctional microplate reader (Bio-Tek) was used to measure the optical absorption at 630 nm, and the EC50 was calculated by GraphPad Prism.
# The agonistic effect of the compounds of the invention on human TLR7 can be determined by the above experiments, and the measured EC50 value is shown in Table 1.
row,SMILES,EC50 [nM]
1,Nc1nc2nc3c1[nH]c(=O)n3Cc1cc(c3c(c1)CNCC3)CCCCCCO2 [Compound I-28],111
2,Nc1nc2nc3c1[nH]c(=O)n3Cc1cc(c3c(c1)CN(CC(F)(F)F)CC3)CCCCCO2 [Compound I-39],3150
3,Nc1nc2nc3c1[nH]c(=O)n3Cc1cc(c3c(c1)CCNC3)C/C=C\CCO2 [Compound I-11],6
4,Nc1nc2nc3c1[nH]c(=O)n3Cc1cc3c(c(c1)OCCCO2)CCNC3 [Compound I-30],75
5,CC(C)(CN1CCc2c3cc(cc2C1)Cn1c(=O)[nH]c2c(N)nc(nc21)OCCCCC3)C(=O)O [Compound I-27],76
6,Nc1nc2nc3c1[nH]c(=O)n3Cc1cc(c3c(c1)CC(C(=O)O)CO3)CCCCCO2 (stereo not shown) [Compound I-19],165
7,Nc1nc2nc3c1[nH]c(=O)n3Cc1cc(c3c(c1)CCN(CC(=O)O)C3)CC=CCCO2 [Compound I-24],84
8,Nc1nc2nc3c1[nH]c(=O)n3Cc1cc3c(c(c1)OC[C@@H]1CC[C@H]1CO2)CCNC3 [Compound I-29],35
9,Nc1nc2nc3c1[nH]c(=O)n3Cc1cc(c3c(c1)CCC(C(=O)O)O3)CCCCCO2 (stereo not shown) [Compound I-15],228
10,Nc1nc2nc3c1[nH]c(=O)n3Cc1cc(c3c(c1)CN(CC(=O)O)CC3)C/C=C/CCO2 [Compound I-22],15
11,Nc1nc2nc3c1[nH]c(=O)n3Cc1cc3c(c(c1)OCCCCO2)CCNC3 [Compound I-31],39
12,Nc1nc2nc3c1[nH]c(=O)n3Cc1cc3c(c(c1)OC[C@@H]1C[C@H]1CO2)CCNC3 [Compound I-32],31
13,Nc1nc2nc3c1[nH]c(=O)n3Cc1cc(c3c(c1)C(=O)N(CC(=O)O)C3)C/C=C\CCO2 [Compound I-1],3
14,Nc1nc2nc3c1[nH]c(=O)n3Cc1cc(c3c(c1)CCNC3)C/C=C/CCO2 [Compound I-12],8
15,Nc1nc2nc3c1[nH]c(=O)n3Cc1cc(c3c(c1)CNCC3)CCCCCO2 [Compound I-10],26
16,CN1CCc2c3cc(cc2C1)Cn1c(=O)[nH]c2c(N)nc(nc21)OCCCCC3 [Compound I-36],20
17,CN1Cc2c3cc(cc2C1=O)Cn1c(=O)[nH]c2c(N)nc(nc21)OCCCCC3 [Compound I-5],113

row,SMILES,EC50 [nM]
1,Nc1nc2nc3c1[nH]c(=O)n3Cc1cc(c3c(c1)CCC(C(=O)O)O3)CC=CCCO2 (stereo not shown) [Compound I-14],38
2,Nc1nc2nc3c1[nH]c(=O)n3Cc1cc(c3c(c1)CC(C(=O)O)O3)CCCCCO2 (stereo not shown) [Compound I-17],167
3,Nc1nc2nc3c1[nH]c(=O)n3Cc1cc3c(c(c1)OC[C@@H]1CCC[C@H]1CO2)CCNC3 [Compound I-33],140
4,Nc1nc2nc3c1[nH]c(=O)n3Cc1cc(c3c(c1)CC(C(=O)O)O3)CC=CCCO2 (stereo not shown) [Compound I-16],17
5,Nc1nc2cc3c1[nH]c(=O)n3Cc1cc(c3c(c1)CNCC3)C/C=C/CCO2 [Compound I-34],132
6,Nc1nc2nc3c1[nH]c(=O)n3Cc1cc(c3c(c1)CC(C(=O)O)CO3)CC=CCCO2 (stereo not shown) [Compound I-18],20
7,Nc1nc2nc3c1[nH]c(=O)n3Cc1cc(c3c(c1)CN(CC(=O)O)CC3)CCCCCO2 [Compound I-23],79
8,Nc1nc2nc3c1[nH]c(=O)n3Cc1cc(c3c(c1)C(=O)N(CC(=O)O)C3)CCCCCO2 [Compound I-3],10
9,Nc1nc2nc3c1[nH]c(=O)n3Cc1cc(c3c(c1)CCN(CC(=O)O)C3)CCCCCO2 [Compound I-25],95
10,CN1Cc2c3cc(cc2C1=O)Cn1c(=O)[nH]c2c(N)nc(nc21)OCCC=CC3 [Compound I-4],5
11,CC1(C(=O)O)Cc2cc3cc(c2C1)C/C=C\CCOc1nc(N)c2[nH]c(=O)n(c2n1)C3 (stereo not shown) [Compound I-21],42
12,Nc1nc2nc3c1[nH]c(=O)n3Cc1cc(c3c(c1)CN(CCO)CC3)CCCCCO2 [Compound I-38],47
13,Nc1nc2nc3c1[nH]c(=O)n3Cc1cc(c3c(c1)C(=O)N(CCN1CCCC1)C3)C/C=C\CCO2 [Compound I-6],2
14,Nc1nc2nc3c1[nH]c(=O)n3Cc1cc(c3c(c1)C(=O)N(CCN1CCCC1)C3)C/C=C/CCO2 [Compound I-7],8
15,Nc1nc2nc3c1[nH]c(=O)n3Cc1cc(c3c(c1)CNCC3)C/C=C/CCO2 [Compound I-9],9
16,Nc1nc2nc3c1[nH]c(=O)n3Cc1cc(c3c(c1)CCNC3)CCCCCO2 [Compound I-13],28
17,Nc1nc2nc3c1[nH]c(=O)n3Cc1cc(c3c(c1)CNCC3)C/C=C\CCO2 [Compound I-8],15

# Next, values leading:
row,EC50 [nM],SMILES
1,87,CS(=O)(=O)CCN1CCc2c3cc(cc2C1)Cn1c(=O)[nH]c2c(N)nc(nc21)OCCCCC3 [Compound I-59]
2,3,CS(=O)(=O)N1CCc2c3cc(cc2C1)Cn1c(=O)[nH]c2c(N)nc(nc21)OCCC=CC3 [Compound I-43]
3,1100,CN1CCC=CCc2cc(cc3c2CN(C(C)(C)C)C3=O)Cn2c(=O)[nH]c3c(N)nc1nc32 [Compound I-58]
4,38,Nc1nc2nc3c1[nH]c(=O)n3Cc1cc(c3c(c1)CN(C(=O)c1ccccc1)CC3)CC=CCCO2 [Compound I-44]
5,19,CC(C)(C)N1Cc2c3cc(cc2C1=O)Cn1c(=O)[nH]c2c(N)nc(nc21)SCC/C=C\C3 [Compound I-52]
6,393,Nc1nc2nc3c1[nH]c(=O)n3Cc1cc(cc3c1CNCC3)OCCCCO2 [Compound I-66]
7,13,Nc1nc2nc3c1[nH]c(=O)n3Cc1cc(c3c(c1)CNCC3)CCCCCS2(=O)=O [Compound I-61]
8,31,CC(C)N1CCc2c3cc(cc2C1)Cn1c(=O)[nH]c2c(N)nc(nc21)S(=O)(=O)CCCCC3 [Compound I-63]
9,25,Nc1nc2nc3c1[nH]c(=O)n3Cc1cc(cc3c1CN(C1CCC1)CC3)OCCCCO2 [Compound I-68]
10,13,Nc1nc2nc3c1[nH]c(=O)n3Cc1cc(c3c(c1)CN(C1CCC1)CC3)CCCCCS2(=O)=O [Compound I-62]
11,280,Nc1nc2nc3c1[nH]c(=O)n3Cc1cc(c3c(c1)CN(C1CCNCC1)CC3)CCCCCO2 [Compound I-40]
12,73,COC(=O)CN1CCc2c3cc(cc2C1)Cn1c(=O)[nH]c2c(N)nc(nc21)OCCCCC3 [Compound I-49]
13,22,Nc1nc2nc3c1[nH]c(=O)n3Cc1cc(c3c(c1)CN(C1CCOCC1)CC3)CCCCCO2 [Compound I-41]
14,980,Cc1cnc(N2CCc3c4cc(cc3C2)Cn2c(=O)[nH]c3c(N)nc(nc32)OCCCCC4)nc1 [Compound I-46]
15,579,Nc1nc2nc3c1[nH]c(=O)n3Cc1cc(c3c(c1)CN(S(=O)(=O)c1ccccc1)CC3)CC=CCCO2 [Compound I-45]
16,11,CC(C)N1CCc2cc3cc(c2C1)OCCCCOc1nc(N)c2[nH]c(=O)n(c2n1)C3 [Compound I-64]
17,316,Nc1nc2nc3c1[nH]c(=O)n3Cc1cc(cc3c1OCC3)CCCCCO2 [Compound I-67]
18,165,Nc1nc2nc3c1[nH]c(=O)n3Cc1cc(c3c(c1)CN(Cc1ccncc1)CC3)CCCCCO2 [Compound I-47]
